The source of these data is publication doi:10.1101/2025.10.28.685111v1.

Where two headings read alike, the source gives them in different places.

Assay [1] deals with T1, Salmonella Typhimurium ATCC 14028 (STm).
T1 construct: ATCC 14028
Description: microbe, parasite or virus in culture. As to conditions: Salmonella enterica. Further details: Broth microdilution growth inhibition of STm at 500 uM in MHB, M9A or M9I, OD600. The procedure:
Antimicrobial susceptibility was assessed using the traditional CLSI minimum inhibitory concentration (MIC) microplate dilution methods with a few modifications ([59]). Briefly, each compound (dissolved in MQ H2O for all pantetheinamides, or DMSO for pantothenamides) was serially diluted in 96-well plates to the desired concentrations. In the case of checkerboard assays, secondary compounds were separately diluted and added to the plate. Mid-exponential phase media-adapted bacteria were added at 5 × 10^5 CFU/mL and in the case of M9I or M9A cultures, the plates were sealed with a gas permeable moisture barrier seal (FroggaBio, Canada) to prevent excessive evaporation, before incubation at 37 °C and 350 rpm, using a tabletop orbital plate shaker (OHAUS, USA). Growth was quantified based on absorbance at 600 nm (OD600) using a microplate reader. The plate was monitored until there was visible growth in the untreated control, but without allowing for overgrowth: ∼14-16h (OD600 > 0.3) in MHB, ∼36 h (OD600 > 0.2) in M9A, and ∼72-120 h (OD600 > 0.15) in M9I. The IC50 was determined using a four-parameter logarithmic curve on Prism v9.0. All experiments were done at minimum in a biological triplicate. […] To accomplish this, the compounds were screened for their ability to reduce STm growth at a high concentration (500 μM) in various media that reflect nutrient-related facets of either extracellular or intracellular environments (Fig. 2a). Mueller-Hinton broth (MHB)—the medium most widely employed for antibacterial testing—was used to represent nutrient-rich extracellular environments such as the gut, while aspects of the nutrient-limited intramacrophage environment were mimicked by using M9-minimal media containing either acetate (M9A) or itaconate (M9I) as the sole carbon source. Growth in M9A requires the glyoxylate shunt, simulating the use of fatty acids ([33]), whereas growth in M9I, as shown in our previous study, requires an active itaconate-degradation pathway and induces excess oxidative stress that is reflective of the intramacrophage environment ([34]). Of the 75 compounds tested, 31 inhibited growth (by >50%) in M9I, six in M9A, and one in MHB. […] In particular, the pantothenamides 6-13 and 6-14 were active in M9A as well as M9I, with 6-13 being the only MHB active compounds. The other M9A active compounds were 1-03 and 1-17 from the “nitro” category and 4-02 and 4-08 from the “fluoro-alkyl” category.  Fig. 2: Screening the pantetheinamides library. a, Percentage growth inhibition of STm by each of the inhibitors in the library, tested at 500 µM in MHB, M9A, or M9I as the sole carbon source. Inhibition % values are summarized in Supplementary Data 1. b, The IC50 in M9I of a subset of the inhibitor library. The full dataset is shown in Fig. S1 and summarized in Supplementary Data 2. c, Dose-response curves in M9I, M9A, and MHB for selected inhibitors, fit to a four-parameter logarithmic curve. d, Tabulated IC50 (± 95% CI), cytotoxicity and selectivity index (given as the cytoxocity/IC50 in M9I) for the same inhibitors as in c. […] The full dataset is shown in Fig. S4a. g, Sample of results summarized in f showing the CFU of surviving STm inside the compound treated macrophages after 22 h. Data bars show the geometric mean of CFU/mL with error bars depicting the 95% CI. The vehicle control (± 95% CI) is shown as the red line. All experiments were independently repeated a minimum of 3 times, where n ≥ 4 for each condition. Significant results were determined using a one-way ANOVA with Dunnett’s multiple comparisons against the vehicle. ✱, p < 0.05; ✱✱, p < 0.01; ✱✱✱, p < 0.001; ✱✱✱✱, p < 0.0001; ns, non-significant, p > 0.05. “X” denotes that a concentration was omitted from the experiment due to toxicity.

Assay [2] shares this test system. As to the kind of experiment: microbe, parasite or virus in culture. Further details: Broth microdilution dose-response growth inhibition of STm in M9I, OD600, four-parameter fit. As to conditions: Salmonella enterica, read-out: IC50 (µM). On the procedure:
Antimicrobial susceptibility was assessed using the traditional CLSI minimum inhibitory concentration (MIC) microplate dilution methods with a few modifications ([59]). Briefly, each compound (dissolved in MQ H2O for all pantetheinamides, or DMSO for pantothenamides) was serially diluted in 96-well plates to the desired concentrations. In the case of checkerboard assays, secondary compounds were separately diluted and added to the plate. Mid-exponential phase media-adapted bacteria were added at 5 × 10^5 CFU/mL and in the case of M9I or M9A cultures, the plates were sealed with a gas permeable moisture barrier seal (FroggaBio, Canada) to prevent excessive evaporation, before incubation at 37 °C and 350 rpm, using a tabletop orbital plate shaker (OHAUS, USA). Growth was quantified based on absorbance at 600 nm (OD600) using a microplate reader. The plate was monitored until there was visible growth in the untreated control, but without allowing for overgrowth: ∼14-16h (OD600 > 0.3) in MHB, ∼36 h (OD600 > 0.2) in M9A, and ∼72-120 h (OD600 > 0.15) in M9I. The IC50 was determined using a four-parameter logarithmic curve on Prism v9.0. All experiments were done at minimum in a biological triplicate. […] Consequently, the activity was reported as an IC50 value, rather than traditional MICs. […] All other categories had 2-4 molecules with sub-100 μM IC50 values. The general trend in activities for the substituents β to the acyl amide saw CF3 (e.g. 4-01) > thiazole (e.g. 5-01) > NO2 (e.g. 1-01) > CH3 (e.g. 3-01). […] Replacement of the thioester with either a sulfonamide or triazole, rather than an amide, was detrimental to activity. […] Furthermore, increasing the conformational rigidity of the α-substituent correlated with higher IC50 values (e.g, 1-14, methyl < 1-15, dimethyl < 1-16, cyclo  Fig. 2: Screening the pantetheinamides library. a, Percentage growth inhibition of STm by each of the inhibitors in the library, tested at 500 µM in MHB, M9A, or M9I as the sole carbon source. Inhibition % values are summarized in Supplementary Data 1. b, The IC50 in M9I of a subset of the inhibitor library. The full dataset is shown in Fig. S1 and summarized in Supplementary Data 2. c, Dose-response curves in M9I, M9A, and MHB for selected inhibitors, fit to a four-parameter logarithmic curve. d, Tabulated IC50 (± 95% CI), cytotoxicity and selectivity index (given as the cytoxocity/IC50 in M9I) for the same inhibitors as in c. […] The full dataset is shown in Fig. S4a. g, Sample of results summarized in f showing the CFU of surviving STm inside the compound treated macrophages after 22 h. Data bars show the geometric mean of CFU/mL with error bars depicting the 95% CI. The vehicle control (± 95% CI) is shown as the red line. All experiments were independently repeated a minimum of 3 times, where n ≥ 4 for each condition. Significant results were determined using a one-way ANOVA with Dunnett’s multiple comparisons against the vehicle. ✱, p < 0.05; ✱✱, p < 0.01; ✱✱✱, p < 0.001; ✱✱✱✱, p < 0.0001; ns, non-significant, p > 0.05. “X” denotes that a concentration was omitted from the experiment due to toxicity.

Where [3] appears, read: M9A, acetate minimal medium, 36 h, read-out: % Growth Inhibition (Avg) / M9A.
Where [4] appears, read: M9I, itaconate minimal medium, 72-120 h, read-out: % Growth Inhibition (Avg) / M9I.
[5] abbreviates: MHB, nutrient-rich medium, 14-16 h, read-out: % Growth Inhibition (Avg) / MHB.

Consider `CC(C)(CO)[C@@H](O)C(=O)NCCC(=O)NCCNC(=O)C1CC1(F)F` (some centres unmarked) [4-10], for which the inhibition at 500 µM in assay [1] (setting [3]) came to 0%; in assay [1] (setting [4]), 86%; in assay [1] (setting [5]) it was 11%. Further, the IC50 in assay [2] is 29 µM.
In the same order, the values of `CC(C)(CO)[C@@H](O)C(=O)NCCC(=O)NCCNC(=O)C(F)C(F)(F)F` (some centres unmarked) [4-07] are 15%, 94%, 1% and 30 µM.
Turning to `CC(C)(CO)[C@@H](O)C(=O)NCCC(=O)NCCNC(=O)/C=C/C(F)(F)F` [4-04], the values for the inhibition at 500 µM in assay [1] (setting [3]), in assay [1] (setting [4]) and in assay [1] (setting [5]) were 37%, 94% and 0%, respectively. The IC50 in assay [2] stood at 5.1 µM.
In the same order, the values of `CCCCCCCNC(=O)CCNC(=O)[C@H](O)C(C)(C)CO` [6-13] are 100%, 100%, 90% and 0.13 µM.
Turning to `CCCCCCCC(=O)NCCNC(=O)[C@H](O)C(C)(C)CO` [6-14], the inhibition at 500 µM in assay [1] (setting [3]) was 98%; in assay [1] (setting [4]) it was 99%; in assay [1] (setting [5]), 16%. The IC50 in assay [2] came to 1.1 µM.
